Measurements reported in patent publication US7247634B2, “Rifamycin derivatives effective against drug-resistant microbes” (Cumbre Pharmaceuticals Inc., priority 2004, dated 2007).
Converted amounts (≈) assume the structure as drawn.

What was measured:
Type in all cases: cell-based
[1] = test system: Staphylococcus aureus ATCC29213; assay: MIC, microbroth dilution (NCCLS); details: rifS strain, Cation-Adjusted Mueller-Hinton Broth, 37° C., read-out: Antimicrobial activity (MIC)
[2] = test system: Staphylococcus aureus ATCC29213 rpoB^D417Y; assay: microbe, parasite or virus in culture; details: ATCC29213, read-out: Antimicrobial activity (MIC)
In short: (§1)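 MICs by NCCLS broth microdilution, incubation at 37 °C, in cation-adjusted Mueller-Hinton broth. Strains: rifampin-resistant S. aureus ATCC 29213 with rpoB D417Y or H418Y, and quinolone-resistant EN1252a carrying gyrA S84L plus grlA S80F.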

[3] = test system: Staphylococcus aureus ATCC29213 rpoB^H418Y; assay: microbe, parasite or virus in culture; details: ATCC29213, read-out: Antimicrobial activity (MIC)
In short: as §1

[4] = test system: Staphylococcus aureus EN1252a gyrA^S84L grlA^S80F; assay: microbe, parasite or virus in culture; details: read-out: Antimicrobial activity (MIC)
In short: as §1

[5] = test system: Staphylococcus epidermidis ATCC12228; assay: MIC, microbroth dilution (NCCLS); details: rifS strain, Cation-Adjusted Mueller-Hinton Broth, 37° C., read-out: Antimicrobial activity (MIC)
[6] = test system: Streptococcus pneumoniae ATCC6303; assay: MIC, microbroth dilution (NCCLS); details: rifS strain, THY Broth with 1 mg/mL catalase, 5% CO2, 37° C., read-out: Antimicrobial activity (MIC)
[7] = test system: Streptococcus pyogenes ATCC19615; assay: MIC, microbroth dilution (NCCLS); details: rifS strain, THY Broth, 37° C., read-out: Antimicrobial activity (MIC)
[8] = test system: Enterococcus faecalis ATCC29212; assay: MIC, microbroth dilution (NCCLS); details: rifS strain, BHI Broth, 37° C., read-out: Antimicrobial activity (MIC)
[9] = test system: Haemophilus influenzae ATCC10211; assay: MIC, microbroth dilution (NCCLS); details: rifS strain, BHI Broth with NAD and hematin, 37° C., read-out: Antimicrobial activity (MIC)
[10] = test system: Escherichia coli ATCC25922; assay: MIC, microbroth dilution (NCCLS); details: rifS strain, Cation-Adjusted Mueller-Hinton Broth, 37° C., read-out: Antimicrobial activity (MIC)
[11] = test system: Mycobacterium smegmatis ATCC700084; assay: MIC, microbroth dilution (NCCLS); details: Mycolicibacterium smegmatis, rifS strain, Middlebrook Broth plus ADC Enrichment, 37° C., read-out: Antimicrobial activity (MIC)

Row | SMILES | MIC [1] | MIC [2] | MIC [3] | MIC [4] | MIC [5] | MIC [6] | MIC [7] | MIC [8] | MIC [9] | MIC [10] | MIC [11]
1 | COc1c(N2CC3CCCN(C4CCN(C5=C6NC(=O)/C(C)=C\C=C\[C@H](C)[C@H](O)[C@@H](C)[C@@H](O)[C@@H](C)[C@H](OC(C)=O)[C@H](C)[C@@H](OC)/C=C/O[C@@]7(C)Oc8c(C)c(O)c(c(c8C7=O)C5=O)C6=O)CC4)C3C2)c(F)cc2c(=O)c(C(=O)O)cn(C3CC3)c12 (stereo partly drawn) [Example 35, 3-{4-[6-(3-Carboxy-1-cyclopropyl-6-fluoro-8-methoxy-4-oxo-1,4-dihydroquinolin-7-yl)-octahydro-pyrrolo[3,4-b]-pyrridin-1-yl]-piperidin-1-yl}rifamycin S] | 0.004 to 0.5 µg/mL (≈ 0.00339 to 0.424 µM) | 0.06 to 32 µg/mL (≈ 0.0509 to 27.2 µM) | 0.06 to 16 µg/mL (≈ 0.0509 to 13.6 µM) | 0.004 to 0.5 µg/mL (≈ 0.00339 to 0.424 µM) | 0.008 to 0.063 µg/mL (≈ 0.00679 to 0.0535 µM) | 0.008 to 0.125 µg/mL (≈ 0.00679 to 0.106 µM) | 0.008 to 0.063 µg/mL (≈ 0.00679 to 0.0535 µM) | 2 to 32 µg/mL (≈ 1.7 to 27.2 µM) | 0.125 to 2 µg/mL (≈ 0.106 to 1.7 µM) | 0.125 to 8 µg/mL (≈ 0.106 to 6.79 µM) | 0.5 to 64 µg/mL
2 | CO[C@H]1/C=C/O[C@@]2(C)Oc3c(C)c(O)c4c(c3C2=O)C(=O)C(N2CCC(N3CCN(c5c(F)cc6c(=O)c(C(=O)O)cn(C7CC7)c6c5Cl)CC3)CC2)=C(NC(=O)/C(C)=C\C=C\[C@H](C)[C@H](O)[C@@H](C)[C@@H](O)[C@@H](C)[C@H](OC(C)=O)[C@@H]1C)C4=O [Example 38, 3-{4-[1-(3-Carboxy-8-chloro-1-cyclopropyl-6-fluoro-4-oxo-1,4-dihydroquinolin-7-yl)-piperazin-4-yl]-piperidin-1-yl}rifamycin S] | 0.004 to 0.5 µg/mL (≈ 0.0035 to 0.438 µM) | 0.06 to 32 µg/mL (≈ 0.0525 to 28 µM) | 0.06 to 16 µg/mL (≈ 0.0525 to 14 µM) | 0.004 to 0.5 µg/mL (≈ 0.0035 to 0.438 µM) | 0.008 to 0.063 µg/mL (≈ 0.007 to 0.0551 µM) | 0.008 to 0.125 µg/mL (≈ 0.007 to 0.109 µM) | 0.008 to 0.063 µg/mL (≈ 0.007 to 0.0551 µM) | 2 to 32 µg/mL (≈ 1.75 to 28 µM) | 0.125 to 2 µg/mL (≈ 0.109 to 1.75 µM) | 0.125 to 8 µg/mL (≈ 0.109 to 7 µM) | 0.5 to 64 µg/mL
3 | COc1c(N2CCC(C(C)NC3CCN(C4=C5NC(=O)/C(C)=C\C=C\[C@H](C)[C@H](O)[C@@H](C)[C@@H](O)[C@@H](C)[C@H](OC(C)=O)[C@H](C)[C@@H](OC)/C=C/O[C@@]6(C)Oc7c(C)c(O)c(c(c7C6=O)C4=O)C5=O)CC3)C2)c(F)cc2c(=O)c(C(=O)O)cn(C3CC3)c12 (stereo partly drawn) [Example 39, 3-{4-[1-(3-Carboxy-1-cyclopropyl-6-fluoro-8-methoxy-4-oxo-1,4-dihydroquinolin-7-yl)-pyrrolidin-3-ylethylamino]-piperidin-1-yl}rifamycin S] | 0.004 to 0.5 µg/mL (≈ 0.00343 to 0.429 µM) | 0.06 to 32 µg/mL (≈ 0.0514 to 27.4 µM) | 0.06 to 16 µg/mL (≈ 0.0514 to 13.7 µM) | 0.004 to 0.5 µg/mL (≈ 0.00343 to 0.429 µM) | 0.008 to 0.063 µg/mL (≈ 0.00686 to 0.054 µM) | 0.008 to 0.125 µg/mL (≈ 0.00686 to 0.107 µM) | 0.008 to 0.063 µg/mL (≈ 0.00686 to 0.054 µM) | 2 to 32 µg/mL (≈ 1.71 to 27.4 µM) | 0.125 to 2 µg/mL (≈ 0.107 to 1.71 µM) | 0.125 to 8 µg/mL (≈ 0.107 to 6.86 µM) | 0.5 to 64 µg/mL
4 | COc1c(N2CCN(C(=O)C3CN(C4=C5NC(=O)/C(C)=C\C=C\[C@H](C)[C@H](O)[C@@H](C)[C@@H](O)[C@@H](C)[C@H](OC(C)=O)[C@H](C)[C@@H](OC)/C=C/O[C@@]6(C)Oc7c(C)c(O)c(c(c7C6=O)C4=O)C5=O)C3)CC2)c(F)cc2c(=O)c(C(=O)O)cn(C3CC3)c12 [Example 45, 3-{3-[4-(3-Carboxy-1-cyclopropyl-6-fluoro-8-methoxy-4-oxo-1,4-dihydroquinolin-7-yl)-piperazin-1-yl-carbonyl]-azetidin-1-yl}rifamycin S] | 0.004 to 0.5 µg/mL (≈ 0.00351 to 0.439 µM) | 0.06 to 32 µg/mL (≈ 0.0527 to 28.1 µM) | 0.06 to 16 µg/mL (≈ 0.0527 to 14.1 µM) | 0.004 to 0.5 µg/mL (≈ 0.00351 to 0.439 µM) | 0.008 to 0.063 µg/mL (≈ 0.00703 to 0.0554 µM) | 0.008 to 0.125 µg/mL (≈ 0.00703 to 0.11 µM) | 0.008 to 0.063 µg/mL (≈ 0.00703 to 0.0554 µM) | 2 to 32 µg/mL (≈ 1.76 to 28.1 µM) | 0.125 to 2 µg/mL (≈ 0.11 to 1.76 µM) | 0.125 to 8 µg/mL (≈ 0.11 to 7.03 µM) | 0.5 to 64 µg/mL
5 | COc1c(N2CC(NC(=O)C3CN(C4=C5NC(=O)/C(C)=C\C=C\[C@H](C)[C@H](O)[C@@H](C)[C@@H](O)[C@@H](C)[C@H](OC(C)=O)[C@H](C)[C@@H](OC)/C=C/O[C@@]6(C)Oc7c(C)c(O)c(c(c7C6=O)C4=O)C5=O)C3)C2)c(F)cc2c(=O)c(C(=O)O)cn(C3CC3)c12 [Example 47, 3-{3-[1-(3-Carboxy-1-cyclopropyl-6-fluoro-8-methoxy-4-oxo-1,4-dihydroquinolin-7-yl)-azetidin-3-ylcarbamoyl]-azetidin-1-yl}rifamycin S] | 0.004 to 0.5 µg/mL (≈ 0.00356 to 0.445 µM) | 0.06 to 32 µg/mL (≈ 0.0534 to 28.5 µM) | 0.06 to 16 µg/mL (≈ 0.0534 to 14.2 µM) | 0.004 to 0.5 µg/mL (≈ 0.00356 to 0.445 µM) | 0.008 to 0.063 µg/mL (≈ 0.00712 to 0.056 µM) | 0.008 to 0.125 µg/mL (≈ 0.00712 to 0.111 µM) | 0.008 to 0.063 µg/mL (≈ 0.00712 to 0.056 µM) | 2 to 32 µg/mL (≈ 1.78 to 28.5 µM) | 0.125 to 2 µg/mL (≈ 0.111 to 1.78 µM) | 0.125 to 8 µg/mL (≈ 0.111 to 7.12 µM) | 0.5 to 64 µg/mL
6 | CO[C@H]1/C=C/O[C@@]2(C)Oc3c(C)c(O)c4c(c3C2=O)C(=O)C(N2CC(C(=O)N3CCN(c5ccc(N6C[C@H](CNC(C)=O)OC6=O)cc5F)CC3)C2)=C(NC(=O)/C(C)=C\C=C\[C@H](C)[C@H](O)[C@@H](C)[C@@H](O)[C@@H](C)[C@H](OC(C)=O)[C@@H]1C)C4=O [Example 48, 3-{3-(4-[1-(5-methyl-acetamidyl-2-oxo-oxazolidin-3-yl)-5-fluoro-phen-4-yl]-piperazin-1-ylcarbonyl)-azetidin-1-yl}-rifamycin S] | 0.004 to 0.5 µg/mL (≈ 0.00359 to 0.449 µM) | 0.06 to 32 µg/mL (≈ 0.0539 to 28.7 µM) | 0.06 to 16 µg/mL (≈ 0.0539 to 14.4 µM) | 0.004 to 0.5 µg/mL (≈ 0.00359 to 0.449 µM) | 0.008 to 0.063 µg/mL (≈ 0.00719 to 0.0566 µM) | 0.008 to 0.125 µg/mL (≈ 0.00719 to 0.112 µM) | 0.008 to 0.063 µg/mL (≈ 0.00719 to 0.0566 µM) | 2 to 32 µg/mL (≈ 1.8 to 28.7 µM) | 0.125 to 2 µg/mL (≈ 0.112 to 1.8 µM) | 0.125 to 8 µg/mL (≈ 0.112 to 7.19 µM) | 0.5 to 64 µg/mL
